One experiment deals with INS1. The experiment is described as follows: beta cell apoptosis inhibitors, cytokine rescue, dose response, luminescence, retest (AID 449756).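 Further: cell death triggered by IL-1 beta plus TNF-alpha plus IFN-gamma mixture; protective hits raise ATP signal compared with cytokine alone wells.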 In kind it is functional, cell-based. The conditions noted are these: Rattus norvegicus.
For experiment [1], the system named is Escherichia coli. Description: microbe, parasite or virus in culture.
Experiment [2] has as its system Escherichia coli. The experiment is described as follows: microbe, parasite or virus in culture. The source holds these as a separate data set.
Experiment [3] addresses Voltage-gated inwardly rectifying potassium channel KCNH2 (Homo sapiens, UniProt Q12809). The note with it: Potency.
Experiment [4] concerns the target Beta-2 adrenergic receptor (Homo sapiens, UniProt P07550). The experiment is described as follows: beta2AR agonists driving receptor internalization, dose response, cell-based, FAP fluorogen, flow cytometry, cherry pick 1 (AID 588763). The class given is functional. (In flow cytometry, cells or beads pass a laser one at a time.)
Experiment [5] has as its target Delta-type opioid receptor (Homo sapiens, UniProt P41143). Description: Counterscreen for agonists of heterodimerization of the mu 1 (OPRM1) and delta 1 (OPRD1) opioid receptors: Luminescence-based cell-based high throughput dose response assay to identify agonists of OPRD1 homodimerization. [Related pubchem assays (depositor defined):AID504326, AID504355, AID504692, AID504904, AID504905]. In kind it is functional. (Counterscreens check selectivity or assay interference.)

Another experiment addresses Mu-type opioid receptor (Homo sapiens, UniProt P35372). The experiment is described as follows: Counterscreen for agonists of heterodimerization of the mu 1 (OPRM1) and delta 1 (OPRD1) opioid receptors: Luminescence-based cell-based high throughput dose response assay to identify agonists of OPRM1 homodimerization. The class given is functional.
In experiment [6] the target is 5-hydroxytryptamine receptor 5A (Homo sapiens, UniProt P47898). The experiment is described as follows: Counterscreen for agonists of OPRM1-OPRD1 heterodimerization: luminescence-based cell-based high throughput dose response assay to identify agonists of 5-hydroxytryptamine (serotonin) 5A receptor (HTR5A). [Related pubchem assays (depositor defined):AID504326, AID504355, AID504692, AID504904, AID504905]. In kind it is functional.
Chain of 5-hydroxytryptamine receptor 5A (P47898 whole entry): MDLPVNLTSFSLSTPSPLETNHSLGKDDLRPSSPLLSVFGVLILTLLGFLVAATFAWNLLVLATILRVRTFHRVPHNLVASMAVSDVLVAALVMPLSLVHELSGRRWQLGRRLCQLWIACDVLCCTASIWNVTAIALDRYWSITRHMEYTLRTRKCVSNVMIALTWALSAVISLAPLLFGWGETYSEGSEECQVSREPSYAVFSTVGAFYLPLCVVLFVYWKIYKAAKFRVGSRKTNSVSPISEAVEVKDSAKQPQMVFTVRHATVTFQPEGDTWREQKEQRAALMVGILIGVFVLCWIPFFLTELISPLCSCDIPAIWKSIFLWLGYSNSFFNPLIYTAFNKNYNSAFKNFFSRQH

For experiment [7], the target named is Dual specificity tyrosine-phosphorylation-regulated kinase 1A (Rattus norvegicus, UniProt Q63470). In kind it is biochemical, Homo sapiens.
In another experiment the target is Beta-galactosidase (Escherichia coli, UniProt Q8VNN2). The experiment is described as follows: PubChem AID 485352. In kind it is functional.
The target of experiment [8] is Type-1 angiotensin II receptor (Homo sapiens, UniProt P30556). Description: AT1 receptor antagonists, dose response, selectivity assay for APJ receptor antagonist project, cell-based, uHTS hits (AID 463214).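 Further: antagonist potency against angiotensin II stimulated AT1 response.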 The class given is functional.
The target in another experiment is T1, Cysteine protease ATG4B (Homo sapiens, UniProt Q9Y4P1).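 Further: Fluorescence-based dose-response confirmation assay measuring inhibition of ATG4B activity.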
T1 sequence (Q9Y4P1 whole entry): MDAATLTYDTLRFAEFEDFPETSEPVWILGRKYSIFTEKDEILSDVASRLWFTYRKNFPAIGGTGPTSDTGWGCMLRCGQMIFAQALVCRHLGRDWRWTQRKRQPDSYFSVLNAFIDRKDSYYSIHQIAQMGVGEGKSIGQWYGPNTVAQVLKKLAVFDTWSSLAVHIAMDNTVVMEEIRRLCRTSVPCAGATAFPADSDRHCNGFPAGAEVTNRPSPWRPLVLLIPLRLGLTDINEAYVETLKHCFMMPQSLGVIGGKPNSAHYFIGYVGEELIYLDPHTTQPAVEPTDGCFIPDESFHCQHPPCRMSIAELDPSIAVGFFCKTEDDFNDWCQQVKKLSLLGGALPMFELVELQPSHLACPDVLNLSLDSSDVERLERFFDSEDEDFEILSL
In kind it is functional.

A further experiment addresses Phospholipase A2 (Homo sapiens, UniProt P04054). The class given is functional.
Experiment [9] can be described thus: NIH-3T3 fibroblast cytotoxicity, dose response, cytotoxicity control, cell-based, fluorescence, Alamar Blue, secondary assay (AID 2327).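 Further: NIH-3T3 mouse fibroblasts cultured with fluconazole at 8 µg/mL.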 The class given is functional. (In general: The colour change of resazurin is a common sign of viable cells or microbes.)
Experiment [10] in a line: C. albicans growth with fluconazole, confirmation, fluorescence, retest (AID 2467). In kind it is functional, cell-based.
In experiment [11] the target is Serine/threonine-protein phosphatase (Candida dubliniensis (strain CD36 / CBS 7987 / NCPF 3949 / NRRLY-17841) (Yeast), UniProt B9W6M3). Description: calcineurin pathway inhibitors in yeast reporter, dose response, S. cerevisiae, CDRE-lacZ, luminescence, secondary (AID 2388).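 Further: yeast reporter cells carrying a calcineurin-responsive lacZ construct stimulated with calcium chloride; luminescent beta-galactosidase reporter signal in whole cells rather than isolated phosphatase activity; potency for inhibition where a drop in reporter signal means calcineurin blockade.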 The class given is functional, cell-based.
Chain of Serine/threonine-protein phosphatase (B9W6M3 whole entry): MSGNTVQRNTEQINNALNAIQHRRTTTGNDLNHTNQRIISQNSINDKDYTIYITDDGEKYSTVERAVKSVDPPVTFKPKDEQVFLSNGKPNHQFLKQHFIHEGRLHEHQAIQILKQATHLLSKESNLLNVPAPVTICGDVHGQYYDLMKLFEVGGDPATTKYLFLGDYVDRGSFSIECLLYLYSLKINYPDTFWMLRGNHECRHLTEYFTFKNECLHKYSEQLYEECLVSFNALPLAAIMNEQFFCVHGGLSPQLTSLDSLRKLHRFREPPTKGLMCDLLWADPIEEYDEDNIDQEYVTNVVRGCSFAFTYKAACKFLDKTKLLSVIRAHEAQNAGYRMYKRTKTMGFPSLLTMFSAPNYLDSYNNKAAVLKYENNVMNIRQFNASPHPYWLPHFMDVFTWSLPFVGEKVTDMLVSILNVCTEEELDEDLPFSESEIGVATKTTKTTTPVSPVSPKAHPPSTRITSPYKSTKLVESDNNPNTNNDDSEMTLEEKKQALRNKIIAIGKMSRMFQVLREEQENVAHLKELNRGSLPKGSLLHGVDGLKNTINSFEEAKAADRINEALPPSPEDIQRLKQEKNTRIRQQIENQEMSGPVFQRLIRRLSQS
Experiment [12] addresses Heat shock protein HSP 90-alpha (Homo sapiens, UniProt P07900). In kind it is functional, organism-based.
For experiment [13], the target named is ATP-dependent molecular chaperone HSP82 (Candida albicans (strain WO-1) (Yeast), UniProt C4YTQ8). Description: loss of DOC-induced GRE-beta-galactosidase reporter signal, dose response, Hsp90 inhibitor project, S. cerevisiae, luminescence (AID 2400).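 Further: beta-galactosidase luminescence from glucocorticoid response element reporter as proxy for Hsp90 function; inhibitor potency where signal loss means Hsp90 inhibition.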 In kind it is functional, cell-based.
Chain of ATP-dependent molecular chaperone HSP82 (C4YTQ8 whole entry): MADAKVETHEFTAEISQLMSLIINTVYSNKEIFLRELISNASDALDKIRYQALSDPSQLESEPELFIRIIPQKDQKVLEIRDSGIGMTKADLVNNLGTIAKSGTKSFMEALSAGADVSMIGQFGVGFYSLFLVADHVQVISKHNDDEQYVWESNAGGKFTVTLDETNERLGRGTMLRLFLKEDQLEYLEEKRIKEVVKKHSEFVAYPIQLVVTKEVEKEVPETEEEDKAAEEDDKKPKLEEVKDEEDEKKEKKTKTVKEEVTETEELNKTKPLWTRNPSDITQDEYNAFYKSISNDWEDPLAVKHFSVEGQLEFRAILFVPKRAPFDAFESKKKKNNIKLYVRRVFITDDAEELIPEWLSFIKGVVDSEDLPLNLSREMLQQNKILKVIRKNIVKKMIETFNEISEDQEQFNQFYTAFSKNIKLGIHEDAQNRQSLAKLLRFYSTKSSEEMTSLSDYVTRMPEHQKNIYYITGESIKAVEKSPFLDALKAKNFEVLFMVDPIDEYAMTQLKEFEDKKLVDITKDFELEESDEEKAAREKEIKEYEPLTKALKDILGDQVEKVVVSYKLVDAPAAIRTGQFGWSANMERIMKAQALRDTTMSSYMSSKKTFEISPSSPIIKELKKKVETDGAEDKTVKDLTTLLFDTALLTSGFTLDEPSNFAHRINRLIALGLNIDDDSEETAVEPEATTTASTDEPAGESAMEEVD
Experiment [14] can be described thus: Luminescence Cell-Based Dose Response HTS to Identify Activators of Luciferase Translation or Activity in H4 […] Cells. [Related pubchem assays: 1829 (Project Summary), 1814 (Primary HTS)]. In kind it is functional.
The next experiment deals with H4. Description: Luminescence Cell-Based Dose Response HTS to Identify Activators of 5'UTR Stem-Loop Driven Prion Protein mRNA Translation in H4 Neuroglioblastoma Cells. [Related pubchem assays: 1829 (Project Summary), 1814 (Primary HTS)]. In kind it is functional. The note with it: Homo sapiens.
The test system of the next experiment is CHO. The experiment is described as follows: cytotoxicity in TLR9-MyD88 CHO cells, dose response, cytotoxicity control for TLR9-MyD88 binding inhibitor project, cell-based, luminescence (AID 588339).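 Further: CHO cells stably coexpressing TLR9 and MyD88 fusions from primary screen; compound exposure lasted 48 hours before viability readout.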 The note with it: Cricetulus griseus. In kind it is functional, hamster.
For another experiment, the target named is Beta Lactamase (Pseudomonas aeruginosa, UniProt Q932Y6). Description: beta-lactamase reporter inhibitor potency, dose response, artefact control for TLR9-MyD88 binding inhibitor project, BLA reporter cells, FRET fluorescence (AID 588341).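 Further: cell based assay in CHO-K1 cells stably expressing beta-lactamase.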 In kind it is cell-based.
Chain of Beta Lactamase (Q932Y6 whole entry): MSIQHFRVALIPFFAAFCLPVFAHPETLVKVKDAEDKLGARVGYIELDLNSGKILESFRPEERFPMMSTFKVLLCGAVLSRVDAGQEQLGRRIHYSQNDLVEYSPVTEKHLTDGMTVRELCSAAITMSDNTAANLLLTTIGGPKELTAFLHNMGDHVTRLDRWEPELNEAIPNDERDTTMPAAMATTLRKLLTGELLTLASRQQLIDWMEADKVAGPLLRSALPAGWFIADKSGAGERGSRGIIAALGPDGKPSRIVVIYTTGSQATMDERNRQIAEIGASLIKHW
Experiment [15] concerns the target T2, Short transient receptor potential channel 4 (Mus musculus, UniProt Q9QUQ5).
T2 sequence (Q9QUQ5 whole entry): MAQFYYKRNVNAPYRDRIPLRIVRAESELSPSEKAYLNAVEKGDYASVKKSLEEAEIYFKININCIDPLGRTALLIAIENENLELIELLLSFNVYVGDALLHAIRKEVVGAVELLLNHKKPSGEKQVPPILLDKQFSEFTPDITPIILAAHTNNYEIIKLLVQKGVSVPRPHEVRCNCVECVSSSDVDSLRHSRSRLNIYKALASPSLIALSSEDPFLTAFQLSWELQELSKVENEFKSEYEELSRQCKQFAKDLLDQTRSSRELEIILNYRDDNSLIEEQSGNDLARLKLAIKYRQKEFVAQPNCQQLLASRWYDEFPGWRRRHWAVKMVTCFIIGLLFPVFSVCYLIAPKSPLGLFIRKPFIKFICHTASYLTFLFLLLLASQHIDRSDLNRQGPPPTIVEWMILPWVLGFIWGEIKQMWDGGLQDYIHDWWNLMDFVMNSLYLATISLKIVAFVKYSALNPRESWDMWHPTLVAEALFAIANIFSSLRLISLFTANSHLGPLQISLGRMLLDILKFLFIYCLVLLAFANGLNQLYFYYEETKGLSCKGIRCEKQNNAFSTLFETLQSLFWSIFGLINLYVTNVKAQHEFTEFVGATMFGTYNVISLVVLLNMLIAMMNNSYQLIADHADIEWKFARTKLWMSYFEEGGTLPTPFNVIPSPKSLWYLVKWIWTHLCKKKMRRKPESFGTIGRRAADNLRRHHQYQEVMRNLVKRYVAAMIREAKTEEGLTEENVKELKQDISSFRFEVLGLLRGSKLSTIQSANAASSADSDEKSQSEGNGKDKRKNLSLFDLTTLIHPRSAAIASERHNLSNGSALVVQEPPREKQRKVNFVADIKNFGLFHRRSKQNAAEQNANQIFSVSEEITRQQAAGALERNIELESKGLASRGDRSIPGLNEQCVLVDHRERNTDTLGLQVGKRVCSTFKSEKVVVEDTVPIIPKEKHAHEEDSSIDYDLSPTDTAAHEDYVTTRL
The experiment is described as follows: mouse TRPC4 channel activators, dose response, cell-based, HEK293 TRPC4/mu-opioid, Fluo-4 calcium (AID 434937). The class given is functional.

Experiment [16] concerns the target T3, Probable nicotinate-nucleotide adenylyltransferase (Staphylococcus aureus (strain N315), UniProt P65502). The class given is functional, Staphylococcus aureus subsp. aureus N315.
Experiment [17] has as its target T3, Probable nicotinate-nucleotide adenylyltransferase. In kind it is functional, Staphylococcus aureus subsp. aureus N315. The conditions noted are these: read-out: IC50_Mean.

The source made the active and inactive calls.
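Wherever IC50 Mean is given: confirmatory dose-response retesting of NadD inhibitor hits first found in an ultra-high-throughput screen.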

Chain of Delta-type opioid receptor (P41143 whole entry): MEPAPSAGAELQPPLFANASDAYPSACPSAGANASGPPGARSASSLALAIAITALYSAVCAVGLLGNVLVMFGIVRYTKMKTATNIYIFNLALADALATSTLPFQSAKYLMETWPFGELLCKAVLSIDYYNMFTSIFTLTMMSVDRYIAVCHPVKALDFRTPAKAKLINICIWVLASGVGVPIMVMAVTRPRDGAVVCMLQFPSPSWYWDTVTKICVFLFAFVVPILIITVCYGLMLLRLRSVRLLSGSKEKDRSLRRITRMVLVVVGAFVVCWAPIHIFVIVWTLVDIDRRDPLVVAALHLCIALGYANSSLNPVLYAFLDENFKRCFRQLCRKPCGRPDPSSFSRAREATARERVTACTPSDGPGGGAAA
Chain of Voltage-gated inwardly rectifying potassium channel KCNH2 (Q12809 whole entry): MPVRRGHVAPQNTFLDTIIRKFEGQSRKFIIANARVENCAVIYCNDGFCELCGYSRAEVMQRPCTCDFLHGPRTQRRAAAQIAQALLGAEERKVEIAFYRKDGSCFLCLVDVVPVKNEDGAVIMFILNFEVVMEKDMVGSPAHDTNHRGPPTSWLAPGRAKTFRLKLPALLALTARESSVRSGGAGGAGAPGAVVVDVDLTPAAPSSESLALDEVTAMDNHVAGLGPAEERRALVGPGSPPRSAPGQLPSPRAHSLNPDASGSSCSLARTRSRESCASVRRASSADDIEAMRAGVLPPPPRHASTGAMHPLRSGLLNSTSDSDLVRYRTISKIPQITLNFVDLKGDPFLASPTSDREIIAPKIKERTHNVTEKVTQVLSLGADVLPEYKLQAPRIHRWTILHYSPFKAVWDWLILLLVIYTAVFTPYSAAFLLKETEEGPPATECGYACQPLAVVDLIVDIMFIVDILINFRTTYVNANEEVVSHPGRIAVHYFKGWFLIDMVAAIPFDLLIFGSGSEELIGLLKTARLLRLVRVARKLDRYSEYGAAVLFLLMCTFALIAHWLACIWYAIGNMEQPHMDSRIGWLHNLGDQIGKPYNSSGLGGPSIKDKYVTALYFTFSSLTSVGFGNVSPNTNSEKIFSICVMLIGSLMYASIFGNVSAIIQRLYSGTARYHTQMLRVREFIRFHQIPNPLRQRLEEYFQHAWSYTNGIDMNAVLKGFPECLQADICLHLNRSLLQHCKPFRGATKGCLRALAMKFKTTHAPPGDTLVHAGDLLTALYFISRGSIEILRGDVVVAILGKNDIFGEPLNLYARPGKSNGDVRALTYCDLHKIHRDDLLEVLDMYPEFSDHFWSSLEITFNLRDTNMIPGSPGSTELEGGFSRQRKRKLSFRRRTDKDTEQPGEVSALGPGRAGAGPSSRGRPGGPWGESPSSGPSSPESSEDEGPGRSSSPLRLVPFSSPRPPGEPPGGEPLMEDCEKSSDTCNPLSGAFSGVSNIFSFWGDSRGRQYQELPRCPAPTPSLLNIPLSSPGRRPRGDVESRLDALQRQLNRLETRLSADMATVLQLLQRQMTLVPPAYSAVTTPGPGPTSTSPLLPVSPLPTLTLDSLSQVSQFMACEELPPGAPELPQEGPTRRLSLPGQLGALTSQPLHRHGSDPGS
Chain of Beta-2 adrenergic receptor (P07550 whole entry): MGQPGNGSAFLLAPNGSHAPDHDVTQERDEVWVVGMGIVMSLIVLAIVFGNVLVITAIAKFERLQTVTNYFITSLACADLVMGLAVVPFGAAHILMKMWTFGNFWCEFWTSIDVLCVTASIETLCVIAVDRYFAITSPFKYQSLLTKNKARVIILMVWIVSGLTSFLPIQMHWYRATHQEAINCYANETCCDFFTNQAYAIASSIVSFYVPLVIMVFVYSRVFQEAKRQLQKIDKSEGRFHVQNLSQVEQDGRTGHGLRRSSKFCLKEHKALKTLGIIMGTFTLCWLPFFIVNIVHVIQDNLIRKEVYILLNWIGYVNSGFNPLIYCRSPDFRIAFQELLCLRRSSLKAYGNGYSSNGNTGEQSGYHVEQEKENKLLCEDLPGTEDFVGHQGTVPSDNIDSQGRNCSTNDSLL
T3 sequence (P65502 whole entry): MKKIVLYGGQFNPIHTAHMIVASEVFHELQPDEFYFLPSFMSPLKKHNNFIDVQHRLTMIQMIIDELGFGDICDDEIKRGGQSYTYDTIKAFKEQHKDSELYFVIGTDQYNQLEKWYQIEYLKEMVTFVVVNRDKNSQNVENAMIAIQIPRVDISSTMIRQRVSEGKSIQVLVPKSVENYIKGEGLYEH
Chain of Mu-type opioid receptor (P35372 whole entry): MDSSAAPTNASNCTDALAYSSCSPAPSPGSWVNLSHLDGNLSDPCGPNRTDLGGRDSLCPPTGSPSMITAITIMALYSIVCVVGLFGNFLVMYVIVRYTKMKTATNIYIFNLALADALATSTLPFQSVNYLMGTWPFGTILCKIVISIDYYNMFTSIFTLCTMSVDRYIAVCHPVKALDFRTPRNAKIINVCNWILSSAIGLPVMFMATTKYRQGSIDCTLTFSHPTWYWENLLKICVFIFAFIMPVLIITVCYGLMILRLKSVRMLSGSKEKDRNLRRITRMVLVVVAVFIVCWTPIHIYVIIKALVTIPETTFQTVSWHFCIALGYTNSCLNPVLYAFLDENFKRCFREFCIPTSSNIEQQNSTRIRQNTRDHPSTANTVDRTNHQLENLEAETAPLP
Chain of Phospholipase A2 (P04054 whole entry): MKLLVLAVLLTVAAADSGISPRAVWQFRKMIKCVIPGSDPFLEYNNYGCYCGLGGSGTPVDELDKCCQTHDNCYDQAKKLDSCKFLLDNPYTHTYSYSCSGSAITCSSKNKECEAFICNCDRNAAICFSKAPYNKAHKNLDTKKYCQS

As for `C=CCc1c(C)nc(C)nc1N/N=C/c1ccc(N(C)C)cc1`, the results for the AC50 with INS1 and in the experiment on Escherichia coli [1] were 2.54 µM (active) and 26.4 µM (active), respectively.
For the molecule `O=C(C[C@H]1C[C@H](C(=O)N2CCOCC2)[C@@]2(CCC3CCCC3)c3[nH]c4cc(-c5ccco5)ccc4c3CCN2C1=O)NCCCn1ccnc1`, the AC50 (in general, the midpoint of the concentration-response curve, whichever way the signal moves) with Escherichia coli [2] was 59.9 µM (active).
With `CCOC(=O)C1=C(C)NC(C)=C(C(=O)OC)C1c1cccc(Cl)c1Cl` (stereo unspecified) [FELODIPINE], in experiment [3], the AC50 was 20 µM (inconclusive).
In the case of `CCOC(=O)c1ccc(NC(=O)Cc2coc3cc4c(cc23)CCC4)cc1`, the EC50 (as a rule, the concentration giving half of the maximal effect) in experiment [4] was 7.53 µM (active).
For the molecule `CCCCN(C)CCn1c(=S)[nH]c2ncccc2c1=O`, the concentration at half-maximal activity (AC50) in the experiment on Escherichia coli [1] was 29.7 µM (active).
`COc1ccc(C2CC(c3ccc(OC)cc3)n3nc(NC(=O)c4cccs4)nc3N2)cc1` (stereo unspecified): the EC50 (in [5]; at Mu-type opioid receptor; in experiment [6]) was > 92.5 µM (inactive) throughout.
With `Cc1ccc(Cn2nc(C)c(NC(=O)c3cc(C)no3)c2C)cc1`, the AC50 in the experiment with Escherichia coli [2] was > 380 µM (inactive).
With `NC1=NC(=O)/C(=C\c2ccc(-c3ccc(Cl)cc3)o2)S1`, the AC50 in experiment [7] was 0.195 µM (active).
Take `O=C(CNS(=O)(=O)c1ccccc1)OCC(=O)c1cccc([N+](=O)[O-])c1`: the EC50 on Beta-galactosidase is > 40 µM (inactive). Moreover, the IC50 in [8] is given as 38.1 µM (not active).
`CC1(C)C2CCC1(C)C1(C2)NC(=O)c2ccccc2O1` (stereo unspecified): the IC50 on Cysteine protease ATG4B is 14.8 µM (active); on Phospholipase A2, 11 µM (active).
For the molecule `C=CCc1c(C)c(C#N)c2nc3ccccc3n2c1NCCN(C)C`, the EC50 was > 160 µM (inactive) in [9], 1.27 µM (active) in [10], > 180 µM (inactive) in experiment [11] and > 150 µM (inactive) in [13]. Besides, the AC50 in [12] was 4.45 µM (active).
On to `COc1ccc(S(=O)(=O)N2CCCC(C(=O)Nc3ccc(NC(=O)c4ccccn4)cc3)C2)cc1` (stereo unspecified), for which the EC50 is > 120 µM (not active) in experiment [14], 5.33 µM (active) in the experiment with H4 and 0.0809 µM (active) in experiment [4].
Consider `NC1(C(=O)O)CC1`, for which, in [3], the AC50 is 31.6 µM (inconclusive).
On to `O=[N+]([O-])c1ccc(-c2ccc(/C=N/Nc3nc(NCc4ccccc4)nc(N4CCOCC4)n3)o2)cc1`, for which the IC50 with CHO was 15.9 µM (inactive); on Beta Lactamase, 4.69 µM (active).
In the case of `Cc1ccc(-n2cc(CNC(C)c3cnn(C)c3)c(-c3ccc(F)cc3)n2)cc1` (stereo unspecified), the EC50 in experiment [15] is 1.88 µM (active); in experiment [5], 37.3 µM (inactive); at Mu-type opioid receptor it was 2.42 µM (active); in experiment [6], > 92.5 µM (inactive).
Regarding `CCN(Cc1ccccc1)S(=O)(=O)c1ccc(C(=O)Nc2nnc(-c3ccccc3OC)o2)cc1`, the EC50 in [9] is 39.3 µM (active); in experiment [10], 0.468 µM (active); in experiment [11], > 180 µM (inactive); in experiment [13] it was 19.9 µM (active). The values for the IC50 in experiment [16] and in [17] were 8.19 µM (active) and 56.5 µM (active), respectively.

(Values after ChEMBL document CHEMBL1201862, “PubChem BioAssay data set” (2004).)
